Where two headings read alike, the source gives them in different places.

In one test the test system is INS-1 cells. The test is described as follows: Stimulation test of insulin secretion by INS-1 cells. The format is cell-based. The settings on record: Rattus norvegicus, 1 h incubation, 3.5 mM glucose; for activity at 10 µM: INS1, compound at 10 μM, read-out: INS-1 % of ctrl @ 10 μM; for activity at 50 µM: INS1, compound at 50 μM, read-out: INS-1 % of ctrl @ 50 μM. As for the experimental part: The different compounds were tested on an INS-1 beta-pancreatic line in order to evaluate their capability of potentializing the insulin secretion in response to glucose. Very briefly, the cells are cultivated in a culture medium, RPMI 1640 with 10 mM glucose containing 1 mM of sodium pyruvate, 50 μM of 2-mercaptoethanol, 2 mM of glutamine, 10 mM of HEPES, 100 IU/mL of penicillin, 100 μg/mL of streptomycin and 10% of inactivated fetal calf serum, as described by Asfari et al.. For the insulin secretion test, the INS-1 cells are sown and cultivated in 96-well plates. After 3 days of cultivation at 37° C. in a humid atmosphere (95% air/5% CO2), the medium is removed and the cells are incubated for 16 h in a medium containing 5 mM of glucose and 1% of inactivated fetal calf serum. On the day of the test, the cells are washed with a Krebs buffer (pH 7.4) containing 0.1% of bovine albumin and then pre-incubated for 30 min at 37° C. in this same buffer containing 2.8 mM of glucose. Finally, the cells are again washed with Krebs buffer and then incubated for 1 h in the buffer of the secretion test (Krebs, pH 7.4 containing 0.1% of bovine albumin and 3.5 mM of glucose and molecules to be evaluated). At the end of the test, the cell supernatant is recovered in order to measure therein the secreted insulin, by means of an ELISA kit using a rat anti-insulin antibody (ELISA Alpco Cat no. 80-INSRTH-E10). Each condition is tested in triplicate. The 3.5 mM glucose, the 10^−7M GLP-1 and the Forskoline 10^−7/IBMX 10^−5M mixtures are used as positive controls of the test. A compound stimulates the secretion of insulin if this factor is greater than or equal to 130% of the control for a given glucose dose.

In test [1] the test system is isolated perfused pancreases of N0STZ diabetic rats. As to the kind of experiment: Insulin secretion in response to glucose at isolated perfused pancreases of N0STZ diabetic rats. The settings on record: for restoring insulin secretion in response to glucose: isolated perfused pancreases of N0STZ diabetic rats; for Insulin secretion peak at G16.5 mM, Tested product: tested concentration 10 μM, glucose 16.5 mM, average +/- SEM. Details: species or system rat. As for the experimental part:
The pancreas was taken on rats made to be diabetic by injection of Streptozotocin on the day of birth and anesthetized with Pentobarbital (Nembutal©: 45 mg/kg; intraperitoneal route). These rats have a specific deficiency of the insulin response to glucose, as observed in humans with diabetes of type II. The isolation and the perfusion of the pancreas were achieved according to a modification of the procedure described by Sussman et al.. The effect of the compounds or reference substances is tested for 35 minutes (from t=20 min to t=55 min) in Krebs buffer in the absence (GO) or in the presence of glucose at 2.8 mM (G2.8 mM), and then 20 minutes (from t=55 min to t=75 min) in the presence of glucose 16.5 mM. The concentration of insulin secreted into the medium is measured by an Elisa assay (ELISA Alpco Cat no. 80-INSRTH-E10). The results are expressed as an average+/−SEM (Standard Error of the Mean) of several experiments.

Test [2] has as its system hepatocytes isolated from Wistar rat liver. As to the kind of experiment: Test of inhibition of hepatic production of glucose (isolated hepatocytes, 3 h or 20 h incubation). In kind it is cell-based. The conditions noted are these: for activity at 50 µM / activity at 100 µM: Rattus norvegicus, Hepatocyte; for activity at 50 µM: read-out: HGP % of ctrl @ 50 μM; for activity at 100 µM: read-out: HGP % of ctrl @ 100 μM. In a few lines:
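Hepatocytes from 24 h-fasted Wistar rats were cultured overnight in glucose-free RPMI with hydrocortisone (7.10^−5M). Glucose production was run for 3 h in Krebs with lactate/pyruvate plus compounds (0.1% DMSO final), or after an added 20 h pretreatment during the RPMI culture. Supernatant glucose was measured by glucose oxidase and expressed per mg protein (Lowry).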

Where [3] appears, read: 20 h incubation, with two doses.
Setting [4] is: 3 h, hepatic glucose production, rat hepatocytes, 3 h incubation, compound at 50 μM.
Where [5] appears, read: 3 h, hepatic glucose production, rat hepatocytes, 3 h incubation, compound at 100 μM.
[6] abbreviates: 20 h, hepatic glucose production, rat hepatocytes, 20 h incubation, compound at 50 μM.
Where [7] appears, read: 20 h, hepatic glucose production, rat hepatocytes, 20 h incubation, compound at 100 μM.

Consider `CCOC(=O)Cc1cc(C(=O)c2ccc(OC)cc2)sc1-c1ccc(Cl)cc1` [compound 13, ethyl 2-(2-(4-chlorophenyl)-5-(4-methoxybenzoyl)thiophen-3-yl)acetate], for which, in the test with INS-1 cells, the activity at 10 µM was found to be 155%. The “restoring insulin secretion in response to glucose” value in test [1] is on record as “strongest secretions”. In test [1], the “Insulin secretion peak at G16.5 mM, Tested product” value was 1 489 μU/min. Further, the “inhibition of hepatic production of glucose” value (from here on “inhibition”) in test [2] (setting [3]) is recorded as “strongest inhibitions”. Besides, the activity at 50 µM was 84% in test [2] (setting [4]) and 58% in test [2] (setting [6]). In addition, the activity at 100 µM in test [2] (setting [5]) turned out to be 69%; in test [2] (setting [7]), 35%.
On to `O=C(O)Cc1cc(C(=O)C2CCCCC2)sc1-c1ccccc1` [compound 52, 2-(5-(cyclohexanecarbonyl)-2-phenylthiophen-3-yl)acetic acid], for which, in the test with INS-1 cells, the activity at 10 µM is 127% and the activity at 50 µM was determined as 140%. Moreover, in test [2] (setting [4]), the activity at 50 µM was determined as 61%. In addition, the activity at 100 µM in test [2] (setting [5]) stood at 44%.
Consider `O=C(O)Cc1cc(C(=O)c2ccco2)sc1-c1ccc(Cl)cc1` [compound 56, 2-(2-(4-chlorophenyl)-5-(furan-2-carbonyl)thiophen-3-yl)acetic acid], for which the “Insulin secretion peak at G16.5 mM, Tested product” value in test [1] worked out at 845 ± 133 μU/min. For the same compound, in test [2] (hepatic glucose production, rat hepatocytes, 3 h incubation, compound at 50 μM), the “HGP % of ctrl @ 50 μM” value is recorded as 94 % of ctrl. For the same compound, the “HGP % of ctrl @ 100 μM” value in test [2] (hepatic glucose production, rat hepatocytes, 3 h incubation, compound at 100 μM) was 70 % of ctrl.
Consider `COc1ccc(C(=O)c2cc(CC(=O)OC(C)(C)C)c(-c3ccc(Cl)cc3)s2)cc1` [compound 84, tert-butyl 2-(2-(4-chlorophenyl)-5-(4-methoxybenzoyl)thiophen-3-yl)acetate], for which, in the test on INS-1 cells, the activity at 10 µM stood at 139% and the activity at 50 µM was 153%. The activity at 50 µM in test [2] (setting [6]) is 85%. For the same compound, in test [2] (setting [7]), the activity at 100 µM came to 40%.
In the case of `CCOC(=O)Cc1cc(/C(=N/O)c2ccc(OC)cc2)sc1-c1ccc(Cl)cc1` [compound 104, ethyl 2-(2-(4-chlorophenyl)-5-((hydroxyimino)(4-methoxyphenyl)methyl)thiophen-3-yl)acetate], in the test with INS-1 cells, the activity at 10 µM was 153% and the activity at 50 µM came to 203%. In addition, in test [2] (setting [6]), the activity at 50 µM came out at 76%. In addition, the activity at 100 µM in test [2] (setting [7]) stood at 50%.
As to `CCOC(=O)Cc1cc(C(=NOC)c2ccc(OC)cc2)sc1-c1ccc(Cl)cc1` [compound 106, ethyl 2-(2-(4-chlorophenyl)-5-((methoxyimino)(4-methoxyphenyl)methyl)thiophen-3-yl)acetate], the activity at 10 µM in the test on INS-1 cells is 148%. Besides, the activity at 50 µM in the test on INS-1 cells worked out at 151%; in test [2] (setting [6]) it was 74%. The activity at 100 µM in test [2] (setting [7]) was 45%.
Turning to `CCON=C(c1ccc(OC)cc1)c1cc(CC(=O)O)c(-c2ccc(Cl)cc2)s1` [compound 108, 2-(2-(4-chlorophenyl)-5-((ethoxyimino)(4-methoxyphenyl)methyl)thiophen-3-yl)acetic acid], the activity at 10 µM in the test with INS-1 cells stood at 135%. Further, the activity at 50 µM in test [2] (setting [4]) was found to be 88%. Moreover, the activity at 100 µM in test [2] (setting [5]) is 26%.
With `CCOC(=O)C(C)c1cc(C(=O)c2ccc(OC)cc2)sc1-c1ccc(Cl)cc1` (stereo not drawn) [compound 123, ethyl 2-(2-(4-chlorophenyl)-5-(4-methoxybenzoyl)thiophen-3-yl)propanoate], the activity at 10 µM in the test with INS-1 cells was found to be 168%. Also, the activity at 50 µM with INS-1 cells was found to be 166%; in test [2] (setting [4]), 101%. Further, in test [2] (setting [5]), the activity at 100 µM amounted to 63%.
As for `CCOC(=O)C(COC)c1cc(C(=O)c2ccc(OC)cc2)sc1-c1ccc(Cl)cc1` (stereo not drawn) [compound 124, ethyl 2-(2-(4-chlorophenyl)-5-(4-methoxybenzoyl)thiophen-3-yl)-3-methoxypropanoate], the activity at 10 µM in the test with INS-1 cells came to 177%. Further, the activity at 50 µM in the test on INS-1 cells is 169%; in test [2] (setting [6]) it was 92%. Moreover, the “restoring insulin secretion in response to glucose” value in test [1] is on record as “strongest secretions”. Moreover, in test [2] (setting [7]), the activity at 100 µM came to 60%.
As for `CCOC(=O)Cc1cc(C(=O)c2ccco2)sc1-c1cccc(F)c1F` [compound 130, ethyl 2-(2-(2,3-difluorophenyl)-5-(furan-2-carbonyl)thiophen-3-yl)acetate], in the test on INS-1 cells, the activity at 10 µM is 179% and the activity at 50 µM stood at 323%. In addition, in test [2] (setting [3]), the “inhibition” value is listed as “strongest inhibitions”. The activity at 50 µM in test [2] (setting [6]) is 53%. Further, in test [2] (setting [7]), the activity at 100 µM was determined as 40%.
Take `O=C(O)Cc1cc(C(=O)c2ccco2)sc1-c1cccc(F)c1F` [compound 136, 2-(2-(2,3-difluorophenyl)-5-(furan-2-carbonyl)thiophen-3-yl) acetic acid]: the activity at 10 µM in the test with INS-1 cells worked out at 120%. The values for the activity at 50 µM (in the test on INS-1 cells; in test [2] (setting [6])) were 158% and 64%, respectively. Moreover, the activity at 100 µM in test [2] (setting [7]) came to 43%.
In the case of `CC(C)OC(=O)Cc1cc(C(=O)c2ccco2)sc1-c1ccc(Cl)cc1F` [compound 143, isopropyl 2-(2-(4-chloro-2-fluorophenyl)-5-(furan-2-carbonyl)thiophen-3-yl)acetate], in the test with INS-1 cells, the activity at 10 µM stood at 127% and the activity at 50 µM came to 233%. Moreover, the activity at 50 µM in test [2] (setting [4]) was 89%. For the same compound, in test [2] (setting [5]), the activity at 100 µM was found to be 72%.
With `COC(=O)Cc1cc(C(=O)c2ccccn2)sc1-c1ccc(Cl)cc1` [compound 148], in the test with INS-1 cells, the activity at 10 µM came out at 134% and the activity at 50 µM turned out to be 189%. For the same compound, the activity at 50 µM in test [2] (setting [4]) came to 80%. For the same compound, the activity at 100 µM in test [2] (setting [5]) amounted to 49%.
On to `CCOC(=O)Cc1cc(C(=O)c2ccc(Cl)cc2OC)sc1-c1ccc(Cl)cc1` [compound 155, ethyl 2-[5-(4-chloro-2-methoxy-benzoyl)-2-(4-chlorophenyl)-3-thienyl]acetate], for which the activity at 50 µM came to 143% with INS-1 cells and 65% in test [2] (setting [4]). Besides, in test [2] (setting [5]), the activity at 100 µM worked out at 54%.
Consider `CCOC(=O)Cc1cc(C(=O)c2ccco2)sc1-c1ccc(Cl)c(Cl)c1` [compound 158, ethyl 2-[2-(3,4-dichlorophenyl)-5-(furan-2-carbonyl)-3-thienyl]acetate], for which, in the test on INS-1 cells, the activity at 10 µM amounted to 132%. Further, the activity at 50 µM was found to be 201% with INS-1 cells and 59% in test [2] (setting [4]). Also, in test [2] (3 h incubation, at the dose of 50 μM), the “inhibition” value is listed as “strongest inhibitions”.
Take `COc1ccc(S(=O)(=O)c2cc(CC(=O)O)c(-c3ccc(Cl)c(Cl)c3)s2)cc1` [compound 175, 2-[2-(3,4-dichlorophenyl)-5-(4-methoxyphenyl)sulfonyl-3-thienyl]acetic acid]: in the test on INS-1 cells, the activity at 10 µM turned out to be 106% and the activity at 50 µM is 145%. The “inhibition” value in test [2] (3 h incubation, with two doses) is listed as “strongest inhibitions”. Further, the activity at 50 µM in test [2] (setting [4]) is 51%. Besides, the activity at 100 µM in test [2] (setting [5]) came out at 20%.
For `CCOC(=O)Cc1cc(C(=O)c2ccc(Cl)o2)sc1-c1ccc(Cl)cc1` [compound 176, ethyl 2-[5-(5-chlorofuran-2-carbonyl)-2-(4-chlorophenyl)-3-thienyl]acetate], in the test on INS-1 cells, the activity at 10 µM was 144% and the activity at 50 µM came to 246%. Also, the activity at 50 µM in test [2] (setting [4]) came to 76%. Also, the activity at 100 µM in test [2] (setting [5]) worked out at 36%.
